Reference: US11866518B2, “Bicyclic peptide ligands specific for TSLP” (BicycleTx Limited, priority 2020, dated 2024)
Where two headings read alike, the source gives them in different places. *1 amine or outer side, *2 acyl side, *3 side chain or, on linkers, in order; H or OH if unused. Where a SMILES comes first, the peptide text is derived from it. Bridges are numbered along the chain shown (N, C = ends). TATA = O=C(CC[*:1])N1CN(C(=O)CC[*:2])CN(C(=O)CC[*:3])C1

Tests used:
TSLP [1] = target: T1, TSLP (Homo sapiens, UniProt Q969D9); assay: Human peripheral blood mononuclear cell assay (TSLP-induced CCL17/TARC); format: cell-based; design: host or cells: added to human PBMCs from healthy donors
Protocol: Human peripheral blood mononuclear cells (PMBCs) were obtained from heparinized whole blood (healthy donors) by density gradient centrifugation using Lymphoprep (StemCell Technologies, Vancouver, BC) according to the manufacturers instructions. The PBMCs were washed twice with PBS containing 2 mM EDTA and 2% fetal calf serum (FCS) and reconstituted in RPMI containing 10% FCS and 2% PenStrep at a final concentration of 3 million cells/mL. This cell suspension (100 μL) was aliquoted into the wells of a 96-well flat bottom tissue culture plate. 5 μL of bicycle peptide or vehicle (0.1% DMSO in complete medium) was then added and mixed with 5 μL of TSLPvehicle (complete medium). […] The plate was incubated for 30 minutes are rt. 10 μL of this mixture was added to cells and the plate was incubated for 24 hours in a 10% CO2, humidified incubator at 37° C. The plate was centrifuged at 300×g for 5 min and the collected supernatants frozen at −20° C. for subsequent CCL17/TARC analysis.
CCL17/TARC was determined by MSD (MesoScale Discovery, Maryland, USA) according to the manufacturer's instructions.

TSLP [2] = target: T1, TSLP; assay: Human TSLP Surface Plasmon Resonance (SPR) binding assay; design: The resulting construct spCD33-6×HN-TEV-hTSLP(29-159)-Avi; 6xHN tag with TEV site (N, cleaved yes); made in house; host or cells: Expi293F cells; conditions: biotinylated human TSLP immobilized on streptavidin chip; 20° C.; steady-state or kinetic 1:1 fit; read-out: hTSLP SPR Kd
[3] = read-out: CCL17 % Inhibition @ 10 μM, […] TSLP
[4] = human PBMCs, 10 μM peptide, 50 pM TSLP, 24 hours, read-out: CCL17 % Inhibition @ 10 μM, 50 pM TSLP

T1 sequence (Q969D9 29-159): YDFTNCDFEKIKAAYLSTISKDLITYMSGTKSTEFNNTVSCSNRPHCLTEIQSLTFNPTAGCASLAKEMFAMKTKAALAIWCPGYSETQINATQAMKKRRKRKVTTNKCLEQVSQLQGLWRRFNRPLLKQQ

SMILES	inhibition at 10 µM (TSLP [1]; [3]) [%]	inhibition at 10 µM (TSLP [1]; [4]) [%]	Kd (TSLP [2]) [µM]
CC(C)C[C@@H]1NC(=O)[C@H](Cc2c[nH]c3ccccc23)NC(=O)[C@H]([C@@H](C)O)NC(=O)[C@@H](NC(=O)[C@H](C)N)CSCCC(=O)N2CN3CN(C2)C(=O)CCSC[C@H](NC(=O)[C@H](CC(=O)O)NC(=O)[C@H](CC(=O)O)NC1=O)C(=O)N[C@@H](Cc1c[nH]c2ccccc12)C(=O)N[C@@H](CCCNC(=N)N)C(=O)NCC(=O)N[C@@H](Cc1ccccc1)C(=O)N[C@H](C(=O)N[C@@H](C)C(N)=O)CSCCC3=O [Example 76, A-(SEQ ID NO: 57)-A] (H-ACTWLDDCWRGFCA-NH2; linker 2-8-13 via TATA; N-terminus and C-terminus assumed)	0	–	–
CC(C)C[C@@H]1NC(=O)[C@H](Cc2c[nH]c3ccccc23)NC(=O)[C@H](CCC(N)=O)NC(=O)[C@@H](NC(=O)[C@H](CCC(=O)O)NC(=O)[C@H](C)NC(=O)[C@H](CO)NC(=O)[C@H](CC(=O)O)NC(=O)[C@@H](NC(=O)CN)[C@@H](C)O)CSCCC(=O)N2CN3CN(C2)C(=O)CCSC[C@H](NC(=O)[C@H](CC(=O)O)NC(=O)[C@H](CCC(=O)O)NC1=O)C(=O)N[C@@H](Cc1c[nH]c2ccccc12)C(=O)N[C@@H](CCCNC(=N)N)C(=O)NCC(=O)N[C@@H](Cc1ccccc1)C(=O)N[C@H](C(=O)N[C@@H](C)C(N)=O)CSCCC3=O [Example 45, GTDSAE-(SEQ ID NO: 38)-A]	0	–	–
CC(C)C[C@@H]1NC(=O)[C@H](Cc2c[nH]c3ccccc23)NC(=O)[C@H](CCC(N)=O)NC(=O)[C@@H](NC(=O)[C@H](C)N)CSCCC(=O)N2CN3CN(C2)C(=O)CCSC[C@H](NC(=O)[C@H](CC(=O)O)NC(=O)[C@H](CCC(=O)O)NC1=O)C(=O)N[C@@H](Cc1c[nH]c2ccccc12)C(=O)N[C@@H](CCCNC(=N)N)C(=O)NCC(=O)N[C@@H](Cc1ccccc1)C(=O)N[C@H](C(=O)N[C@@H](C)C(N)=O)CSCCC3=O [Example 68, A-(SEQ ID NO: 38)-A]	33	–	–
CC(=O)N[C@H]1CSCCC(=O)N2CN3CN(C2)C(=O)CCSC[C@H](NC(=O)[C@H](CC(=O)O)NC(=O)[C@H](CCC(=O)O)NC(=O)[C@H](CC(C)C)NC(=O)[C@H](Cc2c[nH]c4ccccc24)NC(=O)[C@H](CCC(N)=O)NC1=O)C(=O)N[C@@H](Cc1c[nH]c2ccccc12)C(=O)N[C@@H](CCCNC(=N)N)C(=O)NCC(=O)N[C@@H](Cc1ccccc1)C(=O)N[C@H](C(N)=O)CSCCC3=O [Example 79, Ac-(SEQ ID NO: 38)]	-18	–	–
CC(=O)N[C@H]1CSCCC(=O)N2CN3CN(C2)C(=O)CCSC[C@H](NC(=O)[C@H](CC(=O)O)NC(=O)[C@H](CCC(=O)O)NC(=O)[C@H](CC(C)C)NC(=O)[C@H](Cc2c[nH]c4ccccc24)NC(=O)[C@H](CCC(N)=O)NC1=O)C(=O)N[C@@H](Cc1c[nH]c2ccccc12)C(=O)N[C@@H](CCCNC(=N)N)C(=O)NCC(=O)N[C@@H](Cc1ccc2ccccc2c1)C(=O)N[C@H](C(N)=O)CSCCC3=O [Example 50, Ac-(SEQ ID NO: 42)]	33	–	–
CSCC[C@H](NC(=O)[C@@H](N)[C@@H](C)O)C(=O)N[C@@H](CCC(=O)O)C(=O)N[C@@H](Cc1ccc(O)cc1)C(=O)N[C@@H](CCCNC(=N)N)C(=O)N[C@@H](CC(=O)O)C(=O)N[C@H]1CSCCC(=O)N2CN3CN(C2)C(=O)CCSC[C@H](NC(=O)[C@H](CC(=O)O)NC(=O)[C@H](CCC(=O)O)NC(=O)[C@H](CC(C)C)NC(=O)[C@H](Cc2c[nH]c4ccccc24)NC(=O)[C@H](CCC(N)=O)NC1=O)C(=O)N[C@@H](Cc1c[nH]c2ccccc12)C(=O)N[C@@H](CCCNC(=N)N)C(=O)NCC(=O)N[C@@H](Cc1ccccc1)C(=O)N[C@H](C(=O)N[C@@H](C)C(N)=O)CSCCC3=O [Example 56, TMEYRD-(SEQ ID NO: 38)-A]	40	–	–
CSCC[C@H](NC(=O)[C@H](CC(=O)O)NC(=O)CNC(=O)[C@H](CC(=O)O)NC(=O)[C@H](C)NC(=O)[C@@H]1CSCCC(=O)N2CN3CN(C2)C(=O)CCSC[C@H](NC(=O)[C@H](CC(=O)O)NC(=O)[C@H](CCC(=O)O)NC(=O)[C@H](CC(C)C)NC(=O)[C@H](Cc2c[nH]c4ccccc24)NC(=O)[C@H](CCC(N)=O)NC(=O)[C@@H](NC(=O)[C@H](C)N)CSCCC3=O)C(=O)N[C@@H](Cc2c[nH]c3ccccc23)C(=O)N[C@@H](CCCNC(=N)N)C(=O)NCC(=O)N[C@@H](Cc2ccccc2)C(=O)N1)C(=O)N[C@@H](CC(C)C)C(N)=O [Example 42, A-(SEQ ID NO: 38)-ADGDML]	47	< 20	–
CC(=O)N[C@H]1CSCCC(=O)N2CN3CN(C2)C(=O)CCSC[C@H](NC(=O)[C@H](CC(=O)O)NC(=O)[C@H](CCC(=O)O)NC(=O)[C@H](CC(C)C)NC(=O)[C@H](Cc2c[nH]c4ccccc24)NC(=O)[C@H](CCC(N)=O)NC1=O)C(=O)N[C@@H](Cc1c[nH]c2ccccc12)C(=O)N[C@@H](CCCNC(=N)N)C(=O)NCC(=O)N[C@@H](Cc1cccc2ccccc12)C(=O)N[C@H](C(N)=O)CSCCC3=O [Example 47, Ac-(SEQ ID NO: 41)]	-7	–	–
CC(=O)N[C@H]1CSCCC(=O)N2CN3CN(C2)C(=O)CCSC[C@H](NC(=O)[C@H](CC(=O)O)NC(=O)[C@H](CCC(=O)O)NC(=O)[C@H](CC(C)C)NC(=O)[C@H](Cc2c[nH]c4ccccc24)NC(=O)[C@H](CCC(N)=O)NC1=O)C(=O)N[C@@H](Cc1c[nH]c2ccccc12)C(=O)N[C@@H](CCCNC(=N)N)C(=O)NCC(=O)N[C@@H](Cc1ccc(Cl)cc1)C(=O)N[C@H](C(N)=O)CSCCC3=O [Example 14, Ac-(SEQ ID NO: 12)]	14	–	–
CC(=O)N[C@H]1CSCCC(=O)N2CN3CN(C2)C(=O)CCSC[C@H](NC(=O)[C@H](CC(=O)O)NC(=O)[C@H](CCC(=O)O)NC(=O)[C@H](CC(C)C)NC(=O)[C@H](Cc2c[nH]c4ccccc24)NC(=O)[C@H](CCC(N)=O)NC1=O)C(=O)N[C@@H](Cc1c[nH]c2ccccc12)C(=O)N[C@@H](CCCNC(=N)N)C(=O)NCC(=O)N[C@@H](Cc1cccc(Cl)c1)C(=O)N[C@H](C(N)=O)CSCCC3=O [Example 32, Ac-(SEQ ID NO: 29)]	14	–	–
CC(=O)N[C@H]1CSCCC(=O)N2CN3CN(C2)C(=O)CCSC[C@H](NC(=O)[C@H](CC(=O)O)NC(=O)[C@H](CCC(=O)O)NC(=O)[C@H](CC(C)C)NC(=O)[C@H](Cc2c[nH]c4ccccc24)NC(=O)[C@H](CCC(N)=O)NC1=O)C(=O)N[C@@H](Cc1c[nH]c2ccccc12)C(=O)N[C@@H](CCCNC(=N)N)C(=O)NCC(=O)N[C@@H](Cc1ccc(F)cc1)C(=O)N[C@H](C(N)=O)CSCCC3=O [Example 17, Ac-(SEQ ID NO: 15)]	–	1	–
CC(=O)N[C@H]1CSCCC(=O)N2CN3CN(C2)C(=O)CCSC[C@H](NC(=O)[C@H](CC(=O)O)NC(=O)[C@H](CCC(=O)O)NC(=O)[C@H](CC(C)(C)C)NC(=O)[C@H](Cc2c[nH]c4ccccc24)NC(=O)[C@H](CCC(N)=O)NC1=O)C(=O)N[C@@H](Cc1c[nH]c2ccccc12)C(=O)N[C@@H](CCCNC(=N)N)C(=O)NCC(=O)N[C@@H](Cc1ccccc1)C(=O)N[C@H](C(N)=O)CSCCC3=O [Example 44, Ac-(SEQ ID NO: 39)]	52	–	–
CC(=O)N[C@H]1CSCCC(=O)N2CN3CN(C2)C(=O)CCSC[C@H](NC(=O)[C@H](CC(=O)O)NC(=O)[C@H](CCC(=O)O)NC(=O)[C@H](CC(C)C)NC(=O)[C@H](Cc2c[nH]c4ccccc24)NC(=O)[C@H](CCC(N)=O)NC1=O)C(=O)N[C@@H](Cc1c[nH]c2ccccc12)C(=O)N[C@@H](CCCNC(=N)N)C(=O)NCC(=O)N[C@@H](Cc1ccc(F)c(F)c1)C(=O)N[C@H](C(N)=O)CSCCC3=O [Example 22, Ac-(SEQ ID NO: 20)]	–	41	–
COc1ccc(C[C@@H]2NC(=O)CNC(=O)[C@H](CCCNC(=N)N)NC(=O)[C@H](Cc3c[nH]c4ccccc34)NC(=O)[C@@H]3CSCCC(=O)N4CN(CN(C4)C(=O)CCSC[C@H](NC(C)=O)C(=O)N[C@@H](CCC(N)=O)C(=O)N[C@@H](Cc4c[nH]c5ccccc45)C(=O)N[C@@H](CC(C)C)C(=O)N[C@@H](CCC(=O)O)C(=O)N[C@@H](CC(=O)O)C(=O)N3)C(=O)CCSC[C@@H](C(N)=O)NC2=O)cc1 [Example 142, Ac-(SEQ ID NO: 101)]	–	–	0.71
CC(C)C[C@@H]1NC(=O)[C@H](Cc2c[nH]c3ccccc23)NC(=O)[C@H](Cc2c[nH]c3ccccc23)NC(=O)[C@H](CO)NC(=O)[C@H](CO)NC(=O)[C@@H]2CSCCC(=O)N3CN(CN(C3)C(=O)CCSC[C@@H](C(=O)N[C@@H](CO)C(=O)N[C@@H](CCC(=O)O)C(=O)N[C@@H](CO)C(=O)N[C@H](C(=O)N[C@@H](Cc3c[nH]cn3)C(=O)N[C@H](C(=O)N[C@@H](C)C(N)=O)[C@@H](C)O)C(C)C)NC1=O)C(=O)CCSC[C@H](NC(=O)[C@H](C)N)C(=O)N[C@@H](CCCNC(=N)N)C(=O)N[C@@H](CC(=O)O)C(=O)N[C@@H](CC(C)C)C(=O)N[C@@H](CC(=O)O)C(=O)N1CCC[C@H]1C(=O)N[C@@H](Cc1c[nH]c3ccccc13)C(=O)N[C@@H]([C@@H](C)O)C(=O)N2 [Example 175, A-(SEQ ID NO: 122)-SESVHTA]	–	–	0.24
